Data on twelve compounds can be found in patent US12404241B2 (Celgene Corporation, priority 2018, dated 2025).

In this assay the target is T1, AR (Homo sapiens, UniProt P10275).
T1 construct: endogenous in cells; host or cells: VCaP cells
T1 sequence (P10275 1-920): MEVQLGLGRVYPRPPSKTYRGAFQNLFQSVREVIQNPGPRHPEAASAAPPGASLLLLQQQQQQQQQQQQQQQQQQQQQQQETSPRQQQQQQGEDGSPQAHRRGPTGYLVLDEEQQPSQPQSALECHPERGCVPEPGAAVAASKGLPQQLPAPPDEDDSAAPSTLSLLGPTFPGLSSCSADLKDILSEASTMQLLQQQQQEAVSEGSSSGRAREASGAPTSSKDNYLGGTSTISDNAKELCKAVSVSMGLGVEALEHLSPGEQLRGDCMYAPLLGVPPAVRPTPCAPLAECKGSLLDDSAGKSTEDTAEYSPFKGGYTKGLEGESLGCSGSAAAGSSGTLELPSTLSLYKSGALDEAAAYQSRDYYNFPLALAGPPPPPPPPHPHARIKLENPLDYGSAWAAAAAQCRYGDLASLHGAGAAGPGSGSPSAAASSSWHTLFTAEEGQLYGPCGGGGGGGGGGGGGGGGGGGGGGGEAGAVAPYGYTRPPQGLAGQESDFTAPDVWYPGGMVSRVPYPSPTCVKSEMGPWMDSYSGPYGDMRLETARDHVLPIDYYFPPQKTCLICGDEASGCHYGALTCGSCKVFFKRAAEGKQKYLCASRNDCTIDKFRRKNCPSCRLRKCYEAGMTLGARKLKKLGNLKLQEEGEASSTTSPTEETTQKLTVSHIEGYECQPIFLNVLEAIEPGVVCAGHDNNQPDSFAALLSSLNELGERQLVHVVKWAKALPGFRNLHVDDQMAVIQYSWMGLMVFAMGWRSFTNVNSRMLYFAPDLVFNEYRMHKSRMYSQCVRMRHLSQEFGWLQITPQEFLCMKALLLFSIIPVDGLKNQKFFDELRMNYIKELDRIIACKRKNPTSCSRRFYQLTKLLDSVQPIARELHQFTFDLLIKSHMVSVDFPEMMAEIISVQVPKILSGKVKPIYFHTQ
Put plainly: VCAP AR Degradation Assay. The assay is classed as cell-based. Particulars: for Y (AR degradation efficiency, % of DMSO control): class symbols *; for DC50: class symbols A-C, read-out: DC50. The method, then:
VCAP AR Degradation Assay. Test compounds were pre-dispensed into a Corning CellBind 96-well clear bottom plate (Cat #3300) using an acoustic dispenser to make a 10-point concentration series at 1:3 dilution for each compound. The final top concentration of each compound was 5 μM. DMSO at a final concentration of 0.1% was used as a control. VCaP cells cultured in DMEM with 8% fetal bovine serum (FBS) were seeded at 50K cells per well in a 200 μL volume into the compound plate and incubated at 37° C. in a CO2 incubator for 24 h. The medium was carefully removed from the cells and the plate was placed on ice. One hundred μL of ice-cold 1x cell lysis buffer from Cell Signaling Technologies (Cat #9803) was added to each well of the cells and the plate was incubated at 4° C. on a shaker for 1 h. Fifteen μL of cell lysate was used for AR ELISA detection using a PathScan Total Sandwich AR ELISA kit (Cell Signaling Technology, Cat #12580). AR levels in compound-treated wells were normalized to that of DMSO control and expressed as percent of control (PoC) (y). A Four Parameter Logistic Model (Sigmoidal Dose-Response Model) was used to determine the compound's DC50, and EC50, using the following equation:
[formula] • A=YMin (lowest AR level normalized to DMSO control in response to compound treatment, as determined by curve fit) • B=YMax (maximum AR level as determined by curve fit) • C=EC50 • D=Hill Slope • x=compound concentration • EC50=the concentration of compound when y=(YMax−YMin)/2 • DC50=the concentration of the compound when y=50% of DMSO control (50% AR degradation) • y=AR protein level normalized to DMSO control
The lowest measured AR level normalized to DMSO control in response to compound treatment, termed Y value, was used to characterize the compound-mediated AR degradation efficiency.

For `N#Cc1ccc(N2C(=O)C3(CCOC3)N(c3ccc(OCCN4CCN(CC(=O)Nc5cc(Cl)cc(NC6CCC(=O)NC6=O)c5)CC4)c(F)c3)C2=S)cc1C(F)(F)F` (single isomer, unassigned) [Example 55, N-(3-chloro-5-(2,6-dioxopiperidin-3-ylamino)phenyl)-2-(4-(2-(4-(3-(4-cyano-3 (trifluoromethyl)phenyl)-4-oxo-2-thioxo-7-oxa-1,3-diazaspiro[4.4]nonan-1-yl)-2-fluorophenoxy)ethyl)piperazin-1-yl)acetamide], the “Y (AR degradation efficiency, % of DMSO control)” value is “** (25%<Y<=35%)” and the half-maximal degradation concentration (DC50) (usually the concentration at which degradation of the target reaches its halfway point) lay within 0.1 to 0.5 µM.
As to `CCc1cc(N2C(=S)N(c3ccc(C#N)c(Cl)c3)C(=O)C2(C)C)ccc1OCCN1CCN(CC(=O)Nc2cccc(NC3CCC(=O)NC3=O)c2)[C@H](C)C1` (stereo partly drawn) [Example 168, 2-((R)-4-(2-(4-(3-(3-chloro-4-cyanophenyl)-5,5-dimethyl-4-oxo-2-thioxoimidazolidin-1-yl)-2-ethylphenoxy)ethyl)-2-methylpiperazin-1-yl)-N-(3-(2,6-dioxopiperidin-3-ylamino)phenyl)acetamide], the “Y (AR degradation efficiency, % of DMSO control)” value is reported as “* (0<Y<=25%)” and the half-maximal degradation concentration (DC50) was below 0.1 µM.
For `CCc1cc(N2C(=S)N(c3ccc(C#N)c(C(F)(F)F)c3)C(=O)C2(C)C)ccc1OCCN1CCN([C@@H](C)C(=O)Nc2cccc(NC3CCC(=O)NC3=O)c2)[C@H](C)C1` (stereo partly drawn) [Example 281, (2S)-2-((R)-4-(2-(4-(3-(4-cyano-3-(trifluoromethyl)phenyl)-5,5-dimethyl-4-oxo-2-thioxoimidazolidin-1-yl)-2-ethylphenoxy)ethyl)-2-methylpiperazin-1-yl)-N-(3-(2,6-dioxopiperidin-3-ylamino)phenyl)propanamide] the same measures were “* (0<Y<=25%)” and below 0.1 µM.
For `CC(F)(F)c1cc(N2C(=S)N(c3ccc(C#N)c(C(F)(F)F)c3)C(=O)C2(C)C)ccc1OCCN1CCN(CC(=O)Nc2cc(Cl)cc(NC3CCC(=O)NC3=O)c2)CC1` (stereo not drawn) [Example 157, N-(3-chloro-5-(2,6-dioxopiperidin-3-ylamino)phenyl)-2-(4-(2-(4-(3-(4-cyano-3-(trifluoromethyl)phenyl)-5,5-dimethyl-4-oxo-2-thioxoimidazolidin-1-yl)-2-(1,1-difluoroethyl)phenoxy)ethyl)piperazin-1-yl)acetamide] the same measures were “* (0<Y<=25%)” and below 0.1 µM.
For `CCc1cc(N2C(=S)N(c3ccc(C#N)c(C(F)(F)F)c3)C(=O)C2(C)C)ccc1OCCN1C[C@@H](C)N(CC(=O)Nc2cccc(NC3CCC(=O)NC3=O)c2)[C@@H](C)C1` (stereo partly drawn) [Example 150, 2-((2S,6R)-4-(2-(4-(3-(4-cyano-3-(trifluoromethyl)phenyl)-5,5-dimethyl-4-oxo-2-thioxoimidazolidin-1-yl)-2-ethylphenoxy)ethyl)-2,6-dimethylpiperazin-1-yl)-N-(3-(2,6-dioxopiperidin-3-ylamino)phenyl)acetamide], the “Y (AR degradation efficiency, % of DMSO control)” value is given as “* (0<Y<=25%)” and the 50% degradation concentration (DC50) is below 0.1 µM.
For `C[C@@H]1CN(CCOc2ccc(N3C(=S)N(c4ccc(C#N)c(C(F)(F)F)c4)C(=O)C34CCC4)cc2C2CC2)C[C@H](C)N1CC(=O)Nc1cccc(NC2CCC(=O)NC2=O)c1` (stereo partly drawn) [Example 225, 2-((2R,6S)-4-(2-(4-(7-(4-cyano-3-(trifluoromethyl)phenyl)-8-oxo-6-thioxo-5,7-diazaspiro[3.4]octan-5-yl)-2-cyclopropylphenoxy)ethyl)-2,6-dimethylpiperazin-1-yl)-N-(3-(2,6-dioxopiperidin-3-ylamino)phenyl)acetamide] the same measures were “* (0<Y<=25%)” and below 0.1 µM.
`CCc1cc(N2C(=S)N(c3cnc(C#N)c(C(F)(F)F)c3)C(=O)C23CCC3)ccc1OCCN1CCN(CC(=O)Nc2cc(Cl)cc(NC3CCC(=O)NC3=O)c2)CC1` (stereo not drawn) [Example 85, N-(3-chloro-5-(2,6-dioxopiperidin-3-ylamino)phenyl)-2-(4-(2-(4-(7-(6-cyano-5-(trifluoromethyl)pyridin-3-yl)-8-oxo-6-thioxo-5,7-diazaspiro[3.4]octan-5-yl)-2-ethylphenoxy)ethyl)piperazin-1-yl)acetamide]: the “Y (AR degradation efficiency, % of DMSO control)” value is given as “* (0<Y<=25%)” and the DC50 was below 0.1 µM.
Consider `C[C@@H]1CN(CCOc2ccc(N3C(=S)N(c4cnc(C#N)c(C(F)(F)F)c4)C(=O)C3(C)C)cc2CCF)CCN1CC(=O)Nc1cc(Cl)cc(NC2CCC(=O)NC2=O)c1` (stereo partly drawn) [Example 140, N-(3-chloro-5-(2,6-dioxopiperidin-3-ylamino)phenyl)-2-((R)-4-(2-(4-(3-(6-cyano-5-(trifluoromethyl)pyridin-3-yl)-5,5-dimethyl-4-oxo-2-thioxoimidazolidin-1-yl)-2-(2-fluoroethyl)phenoxy)ethyl)-2-methylpiperazin-1-yl)acetamide], for which the “Y (AR degradation efficiency, % of DMSO control)” value is listed as “* (0<Y<=25%)” and the half-maximal degradation concentration (DC50) is below 0.1 µM.
For `CCc1cc(N2C(=S)N(c3cnc(C#N)c(C(F)(F)F)c3)C(=O)C23CCC3)ccc1OCCN1CCN(CC(=O)Nc2cccc(NC3CCC(=O)NC3=O)c2)CC1` (stereo not drawn) [Example 56, 2-(4-(2-(4-(7-(6-cyano-5-(trifluoromethyl)pyridin-3-yl)-8-oxo-6-thioxo-5,7-diazaspiro[3.4]octan-5-yl)-2-ethylphenoxy)ethyl)piperazin-1-yl)-N-(3-(2,6-dioxopiperidin-3-ylamino)phenyl)acetamide], the “Y (AR degradation efficiency, % of DMSO control)” value is listed as “* (0<Y<=25%)” and the half-maximal degradation concentration (DC50) was below 0.1 µM.
With `CC1(C)C(=O)N(c2cnc(C#N)c(C(F)(F)F)c2)C(=S)N1c1ccc(OCCN2CCN(CC(=O)Nc3cc(NC4CCC(=O)NC4=O)ccc3F)CC2)cc1` (stereo not drawn) [Example 86, 2-(4-(2-(4-(3-(6-cyano-5-(trifluoromethyl)pyridin-3-yl)-5,5-dimethyl-4-oxo-2-thioxoimidazolidin-1-yl)phenoxy)ethyl)piperazin-1-yl)-N-(5-(2,6-dioxopiperidin-3-ylamino)-2-fluorophenyl)acetamide], the “Y (AR degradation efficiency, % of DMSO control)” value is “** (25%<Y<=35%)” and the 50% degradation concentration (DC50) was below 0.1 µM.
For `CCc1cc(N2C(=S)N(c3cnc(C#N)c(C(F)(F)F)c3)C(=O)C23CCC3)ccc1OCCN1CCN(CC(=O)Nc2cc(Cl)cc(NC3CCC(=O)NC3=O)c2)[C@H](C)C1` (stereo partly drawn) [Example 106, N-(3-chloro-5-(2,6-dioxopiperidin-3-ylamino)phenyl)-2-((R)-4-(2-(4-(7-(6-cyano-5-(trifluoromethyl)pyridin-3-yl)-8-oxo-6-thioxo-5,7-diazaspiro[3.4]octan-5-yl)-2-ethylphenoxy)ethyl)-2-methylpiperazin-1-yl)acetamide] the same measures were “* (0<Y<=25%)” and below 0.1 µM.
For `C[C@@H]1CN(CCOc2ccc(N3C(=S)N(c4cnc(C#N)c(C(F)(F)F)c4)C(=O)C3(C)C)cc2C(C)(F)F)CCN1CC(=O)Nc1cc(Cl)cc(NC2CCC(=O)NC2=O)c1` (stereo partly drawn) [Example 149, N-(3-chloro-5-(2,6-dioxopiperidin-3-ylamino)phenyl)-2-((R)-4-(2-(4-(3-(6-cyano-5-(trifluoromethyl)pyridin-3-yl)-5,5-dimethyl-4-oxo-2-thioxoimidazolidin-1-yl)-2-(1,1-difluoroethyl)phenoxy)ethyl)-2-methylpiperazin-1-yl)acetamide] the same measures were “* (0<Y<=25%)” and below 0.1 µM.
